We go through 6 compounds from patent publication US20250011316A1, “PEROXIREDOXIN 3 INHIBITORS AND METHODS OF USE FOR TREATING CANCER” (Wake Forest University Health Sciences, priority 2022, published 2025).

SMILES strings stand for the structures. Where a name gives a salt, the structure may show the parent alone.

Data set [1] can be described thus: Behaviour of compounds in DMSO and complete tissue culture media (HMESO cell viability assay, FIG. 1). The format is physicochemical. To be noted: from DMSO solution. As to the method: FIG. 1: Cell viability assay data in Malignant Mesothelioma (MM) cells (HMESO cell line) treated with compound (1)—HCl or (5)—HCl N=2 technical and 2 biological replicates conducted by 2 different lab technicians. All compounds went into solution in 100% DMSO. (5)—HCl precipitated at concentrations of ˜20-80 μM when added to complete tissue culture media.

For data set [2], the system named is HMESO mesothelioma cells. Briefly: Cell viability study (crystal violet, 48 h). The format is cell-based. To be noted: Homo sapiens, 48 h incubation, read-out: IC50 (Concentration of drug required to kill 50% of cells). As to the method: Cell Lines were plated in 96-well plates (Corning, Kennebunk, ME, USA) at a density of 2500 cells per well. The following day, cells were treated with test compounds diluted in complete media followed by incubation for 48 h. Post-incubation cells were washed with PBS (Corning Cellgro, Manassas, VA, USA), fixed with 3.0% formaldehyde (Fisher BioReagents, Fair Lawn, NJ, USA) in PBS, and stained for 30 min with 0.1% crystal violet (Acros Organics, Fair Lawn, NJ, USA) in water. Crystal violet stain was removed, and plates were washed with FEO and allowed to dry. To quantify cell viability, plates were imaged using the Lionheart Plate reader (BioTek Instruments, Winooski, VT, USA) and/or analyzed by absorbance at 540 nm (crystal violet dye dissolved in 100% methanol) using the Synergy HTX plate reader (BioTek Instruments, Winooski, VT, USA). To determine the effective cytotoxic concentration (ICso) of test compounds, the data were plotted using a 4-parameter non-linear regression model using GraphPad Prism7 software (GraphPad Software, San Diego, CA, USA).
Cell viability assay data in HMESO mesothelioma cells treated with compounds (1)—HCl or (5) HCl are summarized in the below Table 2. ICso (Concentration of drug required to kill 50% f cells) is shown in […] concentration

In data set [3] the test system is 578 cancer cells lines. To be noted: of 578 cancer cells lines tested; Corsello et al. Nature Cancer 2020; cited from earlier work.
The nature of data set [4]: FIG. 5 (CON'T). As to the method: (§1) Table printed on a drawing sheet, FIG. 5 (CON'T)
(§2) The patent's description of the figure: FIG. 5 is a table summarizing the results of Examples 42-44 for various compounds described herein. NT indicates “not tested.” For EC50 values, “A” represents an EC50 less than or equal to 5.0 μM, “B” represents an EC50 from 5.1 μM to 10.0 μM, “C” represents an EC50 from 10.1 μM to 50.0 μM, and “D” represents an EC50 greater than 50.0 μM.
First reader's note: Continued from the sheet before: the first body row is the end of a record begun there; EC50 is given as classes A-D whose legend is not printed on this sheet.

Data set [5] is described as follows: FIG. 5 (CON’T). As to the method: (§3) Table printed on a drawing sheet, FIG. 5 (CON’T)
as §2

Data set [6] in a line: FIG. 5 (CON’T). As to the method: as §3, §2
First reader's note: Continued from an earlier sheet of FIG. 5; the EC50 classes A-D and NT are not explained on this sheet but only in the patent's figure description.
This is another data set of the same source.

A short description of data set [7]: FIG. 5 (CON'T). On the procedure: as §1, §2
First reader's note: Continued from an earlier sheet of FIG. 5; EC50 is given as classes A-C, and neither these classes nor NT are explained on this sheet.
The source holds these as a separate data set.

For `C=C(NC(=O)c1csc(-c2ccc(N)cc2)n1)C(=O)NC(=C)C(=O)OC` [(5)—HCl, Methyl 2-(2-(2-(4-aminophenyl)thiazole-4-carboxamido)acrylamido)acrylate hydrochloride], the “concentrations at which compound precipitated when added to complete tissue culture media” value in data set [1] was 20 to 80 µM. Further, in data set [2], the IC50 is 1930 nM. On to `C=C(NC(=O)C(=C)NC(=O)c1csc(C2=N[C@@H]3c4csc(n4)[C@H]4NC(=O)c5csc(n5)[C@H]([C@](C)(O)[C@@H](C)O)NC(=O)[C@H]5CSC(=N5)/C(=C/C)NC(=O)[C@H]([C@@H](C)O)NC(=O)c5csc(n5)[C@]3(CC2)NC(=O)[C@H](C)NC(=O)C(=C)NC(=O)[C@H](C)NC(=O)[C@H]([C@@H](C)CC)N[C@@H]2C=Cc3c([C@H](C)O)cc(nc3[C@H]2O)C(=O)O[C@@H]4C)n1)C(N)=O` [Thiostrepton, thiostrepton], for which the “number of tumor cells lines in which meaningful efficacy was shown” value in data set [3] is given as 403.

Turning to `C=C(NC(=O)c1csc(N2C[C@@H](C)N(C(=O)OC(C)(C)C)[C@@H](C)C2)n1)C(=O)NC(=C)C(=O)OC` [compound 56], the “Time into solution from powder?” value in data set [4] fell in the range of 1 to 2 min. Regarding `C=C(NC(=O)c1csc(N2CCC(C(=O)NCCCOC)CC2)n1)C(=O)NC(=C)C(=O)OC` [compound 61], in data set [5], the “Time into solution from powder?” value fell in the range of 1 to 2 min.

Regarding `C=C(NC(=O)c1csc(N2CCN(CCCOC)C(=O)C2)n1)C(=O)NC(=C)C(=O)OC` [compound 63], in data set [6], the “Time into solution from powder?” value is 1 to 2 min.

In the case of `C=C(NC(=O)c1ccc(-c2ccc(NC(=O)OC(C)(C)C)cc2)cc1)C(=O)NC(=C)C(=O)OC` [compound 69], the “Time into solution from powder?” value in data set [7] was in the range of 1 to 2 min.
